Results published in patent US20220105150A1, “AMPHIPATHIC ALPHA-HELICAL ANTIMICROBIAL PEPTIDES TREAT INFECTIONS BY GRAM-NEGATIVE PATHOGENS” (priority 2019, published 2022).
≈ marks a conversion by molar mass, not a printed value. Square brackets hold non-standard residues; d marks the D form. Peptide text beside a SMILES is read from it. Dab = NCC[C@H](N)C(=O)O; Dap = NC[C@H](N)C(=O)O

System: Acinetobacter baumannii strains resistant to Polymyxin B and Colistin
Settings: strains resistant to Polymyxin B and Colistin, 24 h
Text: The coupling procedure used 5 equivalents of Fmoc-D-amino acid or Fmoc-L-amino acid and HCTU (O-(1H-6-chlorobenzotriazole-1-yl)-1,1,3,3-tetramethyluronium hexafluorophosphate) and 6-Cl-HOBt (1-hydroxy-6-chloro-benztriazole) at 4.5 equivalents in DMF (Fisher Scientific, Denver, Colo.) and N-diisopropylethylamine (DIPEA) 10 equivalents (Oakwood Products, Inc., Estill, S.C.) in N-methyl-2-pyrrolidinone (NMP) (Fisher Scientific, Denver, Colo.) with the first and second couplings at room temperature for 30 min each. The deprotection procedure (removal of Fmoc protecting group) was carried out by treatment of the resin with 0.1 M HOBt (1-hydroxybenzotriazole) in DMF with 20% piperidine for 30 min. […] The resin was removed by filtration and peptide was precipitated with ice-cooled ethyl ether on ice for 15 min. Ether was decanted, the peptide was washed twice with ether and redissolved in acetonitrile/water (1:1, with 0.2% TFA) and the solution lyophilized to obtain the crude peptide. • Analytical and Preparative Purification by Reversed-Phase Chromatography: Analytical RP-HPLC: Column, Luna C18 (2), 250×4.6 mm I.D., 5 μm particle size, 100 Å pore size from Phenomenex (Torrance, Calif.). Run conditions: linear AB gradient (1% acetonitrile/min, starting from 2% acetonitrile) at a flow-rate of 1 ml/min, where eluent A is 0.2% aq. TFA and eluent B is 0.18% TFA in acetonitrile; temperature, 30° C. Preparative RP-HPLC: Peptides were dissolved in 0.2% aq. TFA containing 2% acetonitrile to a final concentration of 10 mg/ml. Following filtration through a 0.45 μm Millipore filter and subsequently through a 0.22 μm filter, the peptide solutions were loaded onto the column via multiple 20-ml injections into a 20-ml injection loop at a flow-rate of 10 ml/min. Column, Luna C18 (2), 250×30 mm I.D., 5 um particle size, 100 Å pore size from Phenomenex. Run conditions: 2% acetonitrile/min gradient up to an acetonitrile concentration 10% below that required to elute the peptide during analytical RP-HPLC, then shallow gradient elution (0.05% or 0.1% acetonitrile/min depending on the complexity of impurities near the product of interest on the analytical run of the crude peptide) at a flow-rate of 10 ml/min (same eluents as shown above for analytical RP-HPLC); at room temperature. • Temperature Profiling of Peptides on Reversed-phase HPLC to Measure Dimerization and Oligomerization: Purified peptides were analyzed on an Agilent 1200 series liquid chromatograph for temperature profiling using a Zorbax 300 SB-C8 column (150 mm×2.1 mm I.D.; 5 μm particle size, 300 Å pore size) from Agilent Technologies. […] Temperature profiling was carried out on peptide mixtures run at each temperature in 2° C. increments from 5° C. to 41° C. and 10° C. increments from 5° C. to 75° C. Twenty minutes was allowed between runs for temperature equilibration. • Characterization of Helical Structure: The mean residue molar ellipticities of peptides were determined by circular dichroism (CD) spectroscopy, using a Jasco J-815 spectropolarimeter (Jasco Inc. Easton, Md., USA) at 5° C. under KP buffer (50 mM NaH2PO4/Na2HPO4/100 mM KCl, pH 7.0) as well as in the presence of an α-helix inducing solvent, 2,2,2-trifluoroethanol, TFE, (50 mM NaH2PO4/Na2HPO4/100 mM KCl, pH 7.0 buffer/50% TFE). A 10-fold dilution of an approximately 500 μM stock solution of the peptide analogs was loaded into a 0.1 cm quartz cell and its ellipticity scanned from 195 to 250 nm.

Row | Structure (SMILES) | MIC MB9941 [µM] | MIC MB9949 [µM] | MIC MB9951 [µM] | MIC MB9952 [µM] | MIC MB9953 [µM] | MIC MB9955 [µM] | MIC MB9963 [µM]
1 | CC(=O)N[C@H](CCCCN)C(=O)N[C@H](CC(C)C)C(=O)N[C@@H](CCN)C(=O)N[C@H](CO)C(=O)N[C@H](CC(C)C)C(=O)N[C@H](CC(C)C)C(=O)N[C@@H](CCN)C(=O)N[C@@H](C(=O)N[C@H](CC(C)C)C(=O)N[C@H](CO)C(=O)N[C@H](C)C(=O)N[C@H](C)C(=O)N[C@H](CCCCN)C(=O)N[C@@H](CCN)C(=O)N[C@@H](CCN)C(=O)N[C@H](CCCCN)C(=O)N[C@H](CC(C)C)C(=O)N[C@H](C)C(=O)N[C@@H](C(=O)N[C@H](CC(C)C)C(=O)N[C@H](CC(C)C)C(=O)N[C@@H](CCN)C(=O)N[C@H](C)C(=O)N[C@H](CC(C)C)C(=O)N[C@H](CO)C(=O)N[C@@H](CCN)C(N)=O)[C@H](C)O)[C@H](C)O [D89(Lys^1-6 Dab-2), Ac-KL(L-Dab)SLL(L-Dab)TLSAAK(L-Dab)(L-Dab)KLATLL(L-Dab)ALS(L-Dab)-amide] (Ac-[dK][dL][Dab][dS][dL][dL][Dab][dT][dL][dS][dA][dA][dK][Dab][Dab][dK][dL][dA][dT][dL][dL][Dab][dA][dL][dS][Dab]-NH2) | 0.7 (≈ 1.89 µg/mL) | 0.7 (≈ 1.89 µg/mL) | 0.7 (≈ 1.89 µg/mL) | 0.7 (≈ 1.89 µg/mL) | 0.7 (≈ 1.89 µg/mL) | 0.7 (≈ 1.89 µg/mL) | 0.7 (≈ 1.89 µg/mL)
2 | CC(=O)N[C@H](CCCCN)C(=O)N[C@H](CC(C)C)C(=O)N[C@@H](CN)C(=O)N[C@H](CO)C(=O)N[C@H](CC(C)C)C(=O)N[C@H](CC(C)C)C(=O)N[C@@H](CN)C(=O)N[C@@H](C(=O)N[C@H](CC(C)C)C(=O)N[C@H](CO)C(=O)N[C@H](C)C(=O)N[C@H](C)C(=O)N[C@H](CCCCN)C(=O)N[C@@H](CN)C(=O)N[C@@H](CN)C(=O)N[C@H](CCCCN)C(=O)N[C@H](CC(C)C)C(=O)N[C@H](C)C(=O)N[C@@H](C(=O)N[C@H](CC(C)C)C(=O)N[C@H](CC(C)C)C(=O)N[C@@H](CN)C(=O)N[C@H](C)C(=O)N[C@H](CC(C)C)C(=O)N[C@H](CO)C(=O)N[C@@H](CN)C(N)=O)[C@H](C)O)[C@H](C)O [D106(Lys^1-6 Dap-2), Ac-KL(L-Dap)SLL(L-Dap)TLSAAK(L-Dap)(L-Dap)KLATLL(L-Dap)ALS(L-Dap)-amide] (Ac-[dK][dL][Dap][dS][dL][dL][Dap][dT][dL][dS][dA][dA][dK][Dap][Dap][dK][dL][dA][dT][dL][dL][Dap][dA][dL][dS][Dap]-NH2) | 0.8 (≈ 2.09 µg/mL) | 0.8 (≈ 2.09 µg/mL) | 1.5 (≈ 3.92 µg/mL) | 0.8 (≈ 2.09 µg/mL) | 0.8 (≈ 2.09 µg/mL) | 0.4 (≈ 1.05 µg/mL) | 0.8 (≈ 2.09 µg/mL)
3 | CC(=O)N[C@H](CCCCN)C(=O)N[C@H](CC(C)C)C(=O)N[C@H](CCCCN)C(=O)N[C@H](CO)C(=O)N[C@H](CC(C)C)C(=O)N[C@H](CC(C)C)C(=O)N[C@H](CCCCN)C(=O)N[C@@H](C(=O)N[C@H](CC(C)C)C(=O)N[C@H](CO)C(=O)N[C@H](C)C(=O)N[C@H](C)C(=O)N[C@H](CCCCN)C(=O)N[C@H](CCCCN)C(=O)N[C@H](CCCCN)C(=O)N[C@H](CCCCN)C(=O)N[C@H](CC(C)C)C(=O)N[C@H](C)C(=O)N[C@@H](C(=O)N[C@H](CC(C)C)C(=O)N[C@H](CC(C)C)C(=O)N[C@H](CCCCN)C(=O)N[C@H](C)C(=O)N[C@H](CC(C)C)C(=O)N[C@H](CO)C(=O)N[C@H](CO)C(N)=O)[C@H](C)O)[C@H](C)O [D103(Lys^1Ser^26-5 Lys-2), Ac-KL(Lys)SLL(Lys)TLSAAK(Lys)(Lys)KLATLL(Lys)ALS(Ser)-amide] (Ac-[dK][dL][dK][dS][dL][dL][dK][dT][dL][dS][dA][dA][dK][dK][dK][dK][dL][dA][dT][dL][dL][dK][dA][dL][dS][dS]-NH2) | 0.7 (≈ 1.98 µg/mL) | 0.7 (≈ 1.98 µg/mL) | 0.7 (≈ 1.98 µg/mL) | 0.7 (≈ 1.98 µg/mL) | 0.7 (≈ 1.98 µg/mL) | 0.7 (≈ 1.98 µg/mL) | 0.7 (≈ 1.98 µg/mL)

Now from value to compound:

Row | MIC MB9941 [µM] | MIC MB9949 [µM] | MIC MB9951 [µM] | MIC MB9952 [µM] | MIC MB9953 [µM] | MIC MB9955 [µM] | MIC MB9963 [µM] | Structure (SMILES)
4 | 0.7 (≈ 2.01 µg/mL) | 0.7 (≈ 2.01 µg/mL) | 0.3 (≈ 0.86 µg/mL) | 0.3 (≈ 0.86 µg/mL) | 0.3 (≈ 0.86 µg/mL) | 0.3 (≈ 0.86 µg/mL) | 0.4 (≈ 1.15 µg/mL) | CC(=O)N[C@H](CCCCN)C(=O)N[C@H](CC(C)C)C(=O)N[C@H](CCCCN)C(=O)N[C@H](CO)C(=O)N[C@H](CC(C)C)C(=O)N[C@H](CC(C)C)C(=O)N[C@H](CCCCN)C(=O)N[C@@H](C(=O)N[C@H](CC(C)C)C(=O)N[C@H](CO)C(=O)N[C@H](C)C(=O)N[C@H](C)C(=O)N[C@H](CCCCN)C(=O)N[C@H](CCCCN)C(=O)N[C@H](CCCCN)C(=O)N[C@H](CCCCN)C(=O)N[C@H](CC(C)C)C(=O)N[C@H](C)C(=O)N[C@@H](C(=O)N[C@H](CC(C)C)C(=O)N[C@H](CC(C)C)C(=O)N[C@H](CCCCN)C(=O)N[C@H](C)C(=O)N[C@H](CC(C)C)C(=O)N[C@H](CO)C(=O)N[C@H](CCCCN)C(N)=O)[C@H](C)O)[C@H](C)O [D88(Lys^1-6 Lys-2), Ac-KL(Lys)SLL(Lys)TLSAAK(Lys)(Lys)KLATLL(Lys)ALS(Lys)-amide] (Ac-[dK][dL][dK][dS][dL][dL][dK][dT][dL][dS][dA][dA][dK][dK][dK][dK][dL][dA][dT][dL][dL][dK][dA][dL][dS][dK]-NH2)
5 | 0.7 (≈ 1.88 µg/mL) | 0.7 (≈ 1.88 µg/mL) | 0.7 (≈ 1.88 µg/mL) | 0.7 (≈ 1.88 µg/mL) | 1.5 (≈ 4.03 µg/mL) | 0.7 (≈ 1.88 µg/mL) | 0.7 (≈ 1.88 µg/mL) | CC(=O)N[C@H](CCCCN)C(=O)N[C@H](CC(C)C)C(=O)N[C@@H](CCN)C(=O)N[C@H](CO)C(=O)N[C@H](CC(C)C)C(=O)N[C@H](CC(C)C)C(=O)N[C@@H](CCN)C(=O)N[C@@H](C(=O)N[C@H](CC(C)C)C(=O)N[C@H](CO)C(=O)N[C@H](C)C(=O)N[C@H](C)C(=O)N[C@H](CCCCN)C(=O)N[C@@H](CCN)C(=O)N[C@@H](CCN)C(=O)N[C@H](CCCCN)C(=O)N[C@H](CC(C)C)C(=O)N[C@H](C)C(=O)N[C@@H](C(=O)N[C@H](CC(C)C)C(=O)N[C@H](CC(C)C)C(=O)N[C@@H](CCN)C(=O)N[C@H](C)C(=O)N[C@H](CC(C)C)C(=O)N[C@H](CO)C(=O)N[C@H](CO)C(N)=O)[C@H](C)O)[C@H](C)O [D104(Lys^1Ser^26-5 Dab-2), Ac-KL(L-Dab)SLL(L-Dab)TLSAAK(L-Dab)(L-Dab)KLATLL(L-Dab)ALS(Ser)-amide] (Ac-[dK][dL][Dab][dS][dL][dL][Dab][dT][dL][dS][dA][dA][dK][Dab][Dab][dK][dL][dA][dT][dL][dL][Dab][dA][dL][dS][dS]-NH2)
6 | 0.7 (≈ 1.95 µg/mL) | 0.7 (≈ 1.95 µg/mL) | 0.7 (≈ 1.95 µg/mL) | 0.4 (≈ 1.11 µg/mL) | 0.4 (≈ 1.11 µg/mL) | 0.4 (≈ 1.11 µg/mL) | 0.4 (≈ 1.11 µg/mL) | CC(=O)N[C@H](CCCCN)C(=O)N[C@H](CC(C)C)C(=O)N[C@H](CCCN)C(=O)N[C@H](CO)C(=O)N[C@H](CC(C)C)C(=O)N[C@H](CC(C)C)C(=O)N[C@H](CCCN)C(=O)N[C@@H](C(=O)N[C@H](CC(C)C)C(=O)N[C@H](CO)C(=O)N[C@H](CCCN)C(=O)N[C@H](C)C(=O)N[C@H](CCCCN)C(=O)N[C@H](C)C(=O)N[C@H](C)C(=O)N[C@H](CCCCN)C(=O)N[C@H](CC(C)C)C(=O)N[C@H](CCCN)C(=O)N[C@@H](C(=O)N[C@H](CC(C)C)C(=O)N[C@H](CC(C)C)C(=O)N[C@H](CCCN)C(=O)N[C@H](C)C(=O)N[C@H](CC(C)C)C(=O)N[C@H](CO)C(=O)N[C@H](CCCN)C(N)=O)[C@H](C)O)[C@H](C)O [D85(Lys^1-6Orn-1), Ac-KL(Orn)SLL(Orn)TLS(Orn)AKAAKL(Orn)TLL(Orn)ALS(Orn)-amide]
